Measurements reported in DBAASP.
Values after ≈ are worked out from the molar mass of the structure shown.

Tests used:
Test in all cases: ≥ marks a high value that may be exact or a test limit, other limits are often not marked, values filed in µg/mL are converted to µM
[1] = system: Escherichia coli ATCC 25922
[2] = system: Staphylococcus epidermidis ATCC 12228
Pseudomonas aeruginosa = system: Pseudomonas aeruginosa
[3] = system: Staphylococcus aureus ATCC 29213
[4] = system: Pseudomonas aeruginosa ATCC 27853
Escherichia coli = system: Escherichia coli
Staphylococcus aureus = system: Staphylococcus aureus

Row | MIC [1] [µM] | MIC [3] [µM] | MIC [4] [µM] | Structure (SMILES) | other results
1 | > 80 | – | – | CC[C@H](C)[C@H](NC(=O)CN)C(=O)N[C@@H](CCCCN)C(=O)N[C@@H](CCCCN)C(=O)N[C@@H](Cc1c[nH]c2ccccc12)C(=O)N[C@@H](CC(C)C)C(=O)N[C@@H](Cc1cnc[nH]1)C(=O)N[C@@H](CO)C(=O)N[C@@H](C)C(=O)N[C@@H](CCCCN)C(=O)N[C@@H](CCCCN)C(=O)N1CCC[C@H]1C(=O)N1CCC[C@H]1C(=O)N[C@@H](CCCCN)C(=O)N[C@@H](CCCCN)C(=O)N[C@@H](Cc1ccccc1)C(=O)N[C@H](C(=O)N[C@@H](CCCCN)C(=O)N[C@@H](CCCCN)C(=O)N[C@H](C(=O)N[C@@H](CCSC)C(=O)N[C@@H](CC(N)=O)C(=O)N[C@@H](CO)C(N)=O)[C@@H](C)CC)C(C)C [GIKKWLHSAKKPPKKFVKKIMNS] | MIC [2]: 10 µM (≈ 26.9 µg/mL)
2 | – | – | – | CC[C@H](C)[C@H](NC(=O)[C@H](Cc1ccccc1)NC(=O)[C@H](CO)NC(=O)[C@H](CCCCN)NC(=O)[C@H](Cc1c[nH]c2ccccc12)NC(=O)[C@@H](N)CCCCN)C(=O)N[C@@H](CCCCN)C(=O)N[C@@H](CCCCN)C(=O)N[C@@H](CC(C)C)C(=O)N[C@@H](CC(C)C)C(=O)N[C@@H](CO)C(=O)N[C@@H](CCCCN)C(=O)N[C@@H](Cc1ccccc1)C(=O)N[C@@H](CC(C)C)C(=O)N[C@@H](Cc1cnc[nH]1)C(=O)N[C@@H](CO)C(=O)N[C@@H](C)C(=O)N[C@@H](CCCCN)C(=O)N[C@@H](CCCCN)C(=O)N[C@@H](Cc1ccccc1)C(N)=O [KWKSFIKKLLSKFLHSAKKF] | MIC (Pseudomonas aeruginosa): 5.07 µM (≈ 12.5 µg/mL)
3 | 28.3 (≈ 48.6 µg/mL) | 10 (≈ 17.2 µg/mL) | – | CC(=O)N[C@@H](CCCCN)C(=O)N[C@@H](CC(C)C)C(=O)N[C@@H](CC(C)C)C(=O)N[C@@H](CCCCN)C(=O)N[C@@H](CC(C)C)C(=O)N[C@@H](CC(C)C)C(=O)N[C@@H](CCCCN)C(=O)N[C@@H](CCCCN)C(=O)N[C@@H](CC(C)C)C(=O)N[C@@H](CC(C)C)C(=O)N[C@@H](CCCCN)C(=O)N1CCC[C@H]1C(=O)N[C@@H](CC(C)C)C(=O)N[C@@H](CCCCN)C(N)=O [KLLKLLKKLLKPLK] | –
4 | 5 (≈ 12.8 µg/mL) | 73 (≈ 187 µg/mL) | 51.3 (≈ 131 µg/mL) | CC[C@H](C)[C@H](NC(=O)CN)C(=O)NCC(=O)N[C@@H](CCCCN)C(=O)N[C@@H](Cc1ccccc1)C(=O)N[C@@H](CC(C)C)C(=O)N[C@@H](Cc1cnc[nH]1)C(=O)N[C@@H](CCCCN)C(=O)N[C@H](C(=O)NCC(=O)N[C@@H](CO)C(=O)N[C@@H](Cc1ccccc1)C(=O)N[C@H](C(=O)N[C@@H](CCCCN)C(=O)N[C@@H](CO)C(=O)N[C@@H](Cc1c[nH]c2ccccc12)C(=O)N[C@@H](CCCCN)C(=O)NCC(=O)N[C@@H](CCC(=O)O)C(=O)N[C@H](C(=O)N[C@@H](CCSC)C(=O)N[C@@H](CC(N)=O)C(=O)N[C@@H](CO)C(N)=O)[C@@H](C)CC)[C@@H](C)CC)C(C)C [GIGKFLHKVGSFIKSWKGEIMNS] | –
5 | 5 (≈ 8.99 µg/mL) | > 40 | – | CC(C)C[C@H](NC(=O)[C@H](CCCCN)NC(=O)[C@@H]1CSSC[C@H](N)C(=O)N[C@@H](CCCCN)C(=O)N[C@@H](CCCCN)C(=O)N[C@@H](CC(C)C)C(=O)N[C@@H](CC(C)C)C(=O)N[C@@H](CCCCN)C(=O)N[C@@H](CC(C)C)C(=O)N[C@@H](CC(C)C)C(=O)N[C@@H](CCCCN)C(=O)N[C@@H](CCCCN)C(=O)N[C@@H](CC(C)C)C(=O)N1)C(=O)N[C@@H](C)C(=O)NCC(=O)O [CKKLLKLLKKLCKLAG] | MIC (Escherichia coli): 20 µM (≈ 36 µg/mL)
6 | 14 (≈ 16 µg/mL) | > 56.1 | 14 (≈ 16 µg/mL) | CC[C@H](C)[C@H](NC(=O)[C@H](CCCCN)NC(=O)[C@H](CCCCN)NC(=O)[C@H](C)N)C(=O)N[C@@H](CCCN=C(N)N)C(=O)N[C@H](C(=O)N[C@@H](CCCN=C(N)N)C(=O)N[C@@H](CC(C)C)C(=O)N[C@@H](CO)C(=O)N[C@@H](C)C(=O)O)C(C)C [AKKIRVRLSA] | –
7 | – | – | – | CC[C@H](C)[C@H](N)C(=O)N[C@H](C(=O)N[C@@H](CO)C(=O)N[C@H](C(=O)N[C@H](C(=O)NCC(=O)N[C@@H](CCCCN)C(=O)N[C@@H](CC(C)C)C(=O)N1CCC[C@H]1C(=O)N[C@@H](CCCCN)C(=O)N[C@@H](Cc1c[nH]c2ccccc12)C(=O)N[C@H](C(=O)N[C@H](C(=O)N[C@@H](CCCCN)C(=O)N[C@H](C(=O)N[C@H](C(=O)N[C@@H](CC(N)=O)C(=O)N[C@@H](CCCCN)C(=O)N[C@@H](Cc1ccccc1)C(=O)N[C@H](C(=O)N[C@@H](CCCCN)C(=O)N[C@@H](CCCCN)C(=O)O)[C@@H](C)O)C(C)C)[C@@H](C)O)[C@@H](C)CC)[C@@H](C)CC)[C@@H](C)CC)[C@@H](C)O)[C@@H](C)CC [IISTIGKLPKWIIKTVNKFTKK] | MIC (Escherichia coli): 2.7 µM (≈ 6.9 µg/mL); MIC (Staphylococcus aureus): 22 µM (≈ 56.3 µg/mL)
8 | > 139 | 139 (≈ 256 µg/mL) | > 139 | CC[C@H](C)[C@H](NC(=O)[C@H](CCSC)NC(=O)[C@H](C)NC(=O)[C@@H]1CCCN1C(=O)[C@@H](NC(=O)[C@@H](NC(=O)[C@H](CCCCN)NC(=O)[C@@H](NC(=O)[C@H](CC(C)C)NC(=O)CNC(=O)CN)[C@@H](C)CC)[C@@H](C)CC)C(C)C)C(=O)N[C@H]1CSSC[C@@H](C(=O)O)NC(=O)[C@H](CCCCN)NC(=O)[C@H](CCCCN)NC(=O)[C@H]([C@@H](C)O)NC(=O)[C@H](C(C)C)NC(=O)[C@H](C)NC1=O [GGLIKIVPAMICAVTKKC] | –
9 | 94.1 (≈ 125 µg/mL) | 23.5 (≈ 31.3 µg/mL) | – | CC(C)[C@H](NC(=O)[C@H](Cc1c[nH]c2ccccc12)NC(=O)[C@H](CCCCN)NC(=O)[C@@H](N)CCCN=C(N)N)C(=O)N[C@@H](CCCCN)C(=O)N[C@@H](Cc1c[nH]c2ccccc12)C(=O)N[C@@H](CCCN=C(N)N)C(=O)N[C@@H](CC(N)=O)C(=O)N[C@@H](CCCN=C(N)N)C(=O)O [RKWVKWRNR] | –
10 | – | – | – | CC[C@H](C)[C@H](NC(=O)[C@H](Cc1ccccc1)NC(=O)[C@H](CO)NC(=O)[C@H](CCCCN)NC(=O)[C@H](Cc1c[nH]c2ccccc12)NC(=O)[C@@H](N)CCCCN)C(=O)N[C@@H](CCCCN)C(=O)N[C@@H](CCCCN)C(=O)N[C@@H](CC(C)C)C(=O)N[C@H](C(=O)N[C@@H](CO)C(=O)N[C@@H](CCCCN)C(=O)N[C@@H](Cc1ccccc1)C(=O)N[C@@H](CC(C)C)C(=O)N[C@@H](Cc1cnc[nH]1)C(=O)N[C@@H](CC(C)C)C(=O)N[C@@H](C)C(=O)N[C@@H](CCCCN)C(=O)N[C@@H](CCCCN)C(=O)N[C@@H](Cc1ccccc1)C(N)=O)[C@@H](C)O [KWKSFIKKLTSKFLHLAKKF] | MIC (Pseudomonas aeruginosa): 5.04 µM (≈ 12.5 µg/mL)
11 | 10 (≈ 17 µg/mL) | 5 (≈ 8.51 µg/mL) | – | CC(=O)N[C@@H](CCCCN)C(=O)N[C@@H](CC(C)C)C(=O)N[C@@H](CC(C)C)C(=O)N[C@@H](CCCCN)C(=O)N[C@@H](CC(C)C)C(=O)N[C@@H](CC(C)C)C(=O)N1CCC[C@H]1C(=O)N[C@@H](CCCCN)C(=O)N[C@@H](CC(C)C)C(=O)N[C@@H](CC(C)C)C(=O)N[C@@H](CCCCN)C(=O)N[C@@H](CC(C)C)C(=O)N[C@@H](CC(C)C)C(=O)N[C@@H](CCCCN)C(N)=O [KLLKLLPKLLKLLK] | –
12 | 80 (≈ 130 µg/mL) | 40 (≈ 65.1 µg/mL) | > 160 | NC(=O)[C@H](Cc1ccccc1)NC(=O)[C@H](Cc1ccccc1)NC(=O)[C@H](Cc1ccccc1)NC(=O)[C@@H]1CCCN1C(=O)[C@H](CCCN=C(N)N)NC(=O)[C@@H]1CCCN1C(=O)[C@H](CCCN=C(N)N)NC(=O)[C@@H]1CCCN1C(=O)[C@H](CCCN=C(N)N)NC(=O)[C@@H]1CCCN1C(=O)[C@H](CCCN=C(N)N)NC(=O)[C@@H](N)CCCN=C(N)N [RRPRPRPRPFFF] | –
